From US10208016B2, “1-sulfonyl piperidine derivatives as modulators of prokineticin receptors” (TAKEDA PHARMACEUTICAL COMPANY LIMITED, priority 2013, dated 2019)

Each compound was assayed against human PKR1 receptors (Homo sapiens (Human), UniProt Q8TCW9) (assay: PKR1 antagonist calcium mobilisation assay (FLIPR), block of PK1-mediated intracellular calcium release). Settings: RBL2H3 cells expressing human PKR1; stimulation with PK1 at EC80; calcium fluorescence.
Type: cell-based
Experimental: Prokineticin receptor 1 (PKR1) antagonists may be functionally assessed by measurement of change in intracellular calcium levels induced by Gq mediated increase in inositol triphosphate (IP3) levels. The ability of a compound to block the intracellular release of calcium mediated by PK1 in RBL2H3 cells expressing human PKR1 receptors is determined as a measure of the compound's antagonist activity in vitro.
Approximately 10,000 cells per assay well are seeded in normal culture medium in a 384 well plate (Corning). Twenty-four hours after seeding, the cells are loaded with a calcium sensitive fluorescent dye by replacing the culture medium with assay buffer (1× Hanks buffered saline, 25 mM HEPES, 0.1% w/v fatty acid free BSA (bovine serum albumin), pH 7.4) containing 1 mM probenecid and 1× Calcium 5 Reagent (Molecular Devices). Cells are incubated at 37° C. for 1 hour to allow for dye uptake.
To test for antagonist activity, test compounds at a final concentration range between 0.32 nM-10 μM (diluted in assay buffer) are added to the assay wells and allowed to incubate for 10 minutes prior to stimulation with PK1. After incubation with test compounds the assay plate is placed in a FLIPR Tetra (Molecular Devices) and PK1 (diluted in assay buffer) is added at the determined EC80 concentration (final). Ligand-dependent changes in intracellular calcium levels are determined by measuring changes in fluorescence of the dye at […] following excitation at 485 nm.

human PKR1 receptors, sequence (Q8TCW9 whole entry): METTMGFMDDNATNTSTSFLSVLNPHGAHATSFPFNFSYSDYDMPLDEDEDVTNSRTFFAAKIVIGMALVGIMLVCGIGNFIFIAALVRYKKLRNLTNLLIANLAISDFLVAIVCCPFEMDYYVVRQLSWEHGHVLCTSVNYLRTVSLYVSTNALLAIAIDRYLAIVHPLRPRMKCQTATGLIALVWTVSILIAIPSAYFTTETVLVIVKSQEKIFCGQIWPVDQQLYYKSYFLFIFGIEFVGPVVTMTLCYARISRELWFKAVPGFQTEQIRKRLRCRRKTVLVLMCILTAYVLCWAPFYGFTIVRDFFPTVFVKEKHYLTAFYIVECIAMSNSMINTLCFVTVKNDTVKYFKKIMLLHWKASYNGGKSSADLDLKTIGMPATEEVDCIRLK

Which IC50 does the source give for Cc1[nH]nc(C2CC2)c1S(=O)(=O)N1CCC(Cc2ccc(Cl)c(F)c2)CC1 [Example 1, 4-(4-Chloro-3-fluorobenzyl)-1-((3-cyclopropyl-5-methyl-1H-pyrazol-4-yl)sulfonyl)piperidine] here?
Its IC50 is 1.37 µM.

How did the IC50 turn out when COC(=O)C(=C1CCN(S(=O)(=O)c2c(C)n[nH]c2C)CC1)c1ccc(Cl)cc1 [Example 2, Methyl 2-(4-Chlorophenyl)-2-(1-((3,5-dimethyl-1H-pyrazol-4-yl)sulfonyl)piperidin-4-ylidene)acetate] was run?
The IC50 was 3.1 µM.

For Cc1n[nH]c(C)c1S(=O)(=O)N1CCC(=C(C#N)c2ccc(Cl)cc2)CC1 [Example 3, 2-(4-Chlorophenyl)-2-(1-((3,5-dimethyl-1H-pyrazol-4-yl)sulfonyl)piperidin-4-ylidene)acetonitrile], which IC50 is on record?
The IC50 was 0.04 µM.

Which IC50 does the source give for Cc1n[nH]c(C)c1S(=O)(=O)N1CCC(=C(C#N)c2c(F)cccc2F)CC1 [Example 4, 2-(2,6-Difluorophenyl)-2-(1-((3,5-dimethyl-1H-pyrazol-4-yl)sulfonyl)piperidin-4-ylidene)acetonitrile] here?
The IC50 was 3.68 µM.

With Cc1n[nH]c(C)c1S(=O)(=O)N1CCC(=C(C#N)c2ccc(Cl)cc2F)CC1 [Example 5, 2-(4-Chloro-2-fluorophenyl)-2-(1-((3,5-dimethyl-1H-pyrazol-4-yl)sulfonyl)piperidin-4-ylidene)acetonitrile] as the compound, how does the IC50 read?
The IC50 was 0.18 µM.

With CCc1n[nH]c(CC)c1S(=O)(=O)N1CCC(=C(C#N)c2ccc(Cl)cc2)CC1 [Example 6, 2-(4-Chlorophenyl)-2-(1-((3,5-diethyl-1H-pyrazol-4-yl)sulfonyl)piperidin-4-ylidene)acetonitrile] as the compound, how does the IC50 read?
The IC50 was 0.05 µM.

Which IC50 does the source give for Cc1c(S(=O)(=O)N2CCC(=C(C#N)c3ccc(Cl)cc3)CC2)c(C(F)(F)F)nn1C [Example 7, 2-(4-Chlorophenyl)-2-(1-((1,5-dimethyl-3-(trifluoromethyl)-1H-pyrazol-4-yl)sulfonyl)piperidin-4-ylidene)acetonitrile] here?
Its IC50 is 0.21 µM.

Which IC50 does the source give for Cc1nn(C)c(C)c1S(=O)(=O)N1CCC(=C(C#N)c2c(F)cccc2F)CC1 [Example 8, 2-(2,6-Difluorophenyl)-2-(1-((1,3,5-trimethyl-1H-pyrazol-4-yl)sulfonyl)piperidin-4-ylidene)acetonitrile] here?
The IC50 was 5.43 µM.

With Cc1n[nH]c(C)c1S(=O)(=O)N1CCC(=C(C#N)c2ccc(OC(F)(F)F)cc2)CC1 [Example 9] as the compound, how does the IC50 read?
The IC50 was 0.15 µM.

Which IC50 does the source give for Cc1n[nH]c(C)c1S(=O)(=O)N1CC/C(=C(\C#N)c2ccc(Cl)cc2)C(C)C1 (stereo not shown) [Example 10, 2-(4-Chlorophenyl)-2-(1-((3,5-dimethyl-1H-pyrazol-4-yl)sulfonyl)-3-methylpiperidin-4-ylidene) acetonitrile] here?
The IC50 was 0.47 µM.

With Cc1n[nH]c(C)c1S(=O)(=O)N1CCC(=Cc2ccc(Cl)cc2F)CC1 [Example 11, 4-(4-Chloro-2-fluorobenzylidene)-1-((3,5-dimethyl-1H-pyrazol-4-yl)sulfonyl)piperidine] as the compound, how does the IC50 read?
Its IC50 is 0.6 µM.

How did the IC50 turn out when Cc1nn(C)c(C)c1S(=O)(=O)N1CCC(=Cc2ccc(Cl)cc2F)CC1 [Example 12, 4-(4-Chloro-2-fluorobenzylidene)-1-((1,3,5-trimethyl-1H-pyrazol-4-yl)sulfonyl)piperidine] was run?
Its IC50 is 0.55 µM.

Which IC50 does the source give for CC(=C1CCN(S(=O)(=O)c2c(C)n[nH]c2C)CC1)c1ccc(Cl)cc1 [Example 13] here?
Its IC50 is 0.76 µM.

For Cc1n[nH]c(C)c1S(=O)(=O)N1CCC(=Cc2ccc(Cl)cc2)CC1 [Example 14, 4-(4-Chlorobenzylidene)-1-((3,5-dimethyl-1H-pyrazol-4-yl)sulfonyl)piperidine], which IC50 is on record?
Its IC50 is 0.76 µM.

Cc1nn(C)c(C)c1S(=O)(=O)N1CCC(=C(C#N)c2ccc(Cl)cc2)CC1 [Example 15, 2-(4-Chlorophenyl)-2-(1-((1,3,5-trimethyl-1H-pyrazol-4-yl)sulfonyl)piperidin-4-ylidene)acetonitrile] was tested. Which IC50 did it give?
The IC50 was 0.04 µM.

How did the IC50 turn out when Cc1n[nH]c(C)c1S(=O)(=O)N1CCC(=C(F)c2ccc(Cl)cc2)CC1 [Example 16, 4-((4-Chlorophenyl)fluoromethylene)-1-((3,5-dimethyl-1H-pyrazol-4-yl)sulfonyl)piperidine] was run?
Its IC50 is 0.16 µM.

How did the IC50 turn out when Cc1n[nH]c(C)c1S(=O)(=O)N1CCC(=C(F)c2ccc(F)c(Cl)c2)CC1 [Example 17, 4-((3-Chloro-4-fluorophenyl)fluoromethylene)-1-((3,5-dimethyl-1H-pyrazol-4-yl)sulfonyl) piperidine] was run?
The IC50 was 1.88 µM.

Cc1n[nH]c(C)c1S(=O)(=O)N1CCC(=C(F)c2ccc(Cl)cc2Cl)CC1 [Example 18, 4-((2,4-Dichlorophenyl)fluoromethylene)-1-((3,5-dimethyl-1H-pyrazol-4-yl)sulfonyl)piperidine] was tested. Which IC50 did it give?
The IC50 was 0.26 µM.

Cc1n[nH]c(C)c1S(=O)(=O)N1CCC(=C(F)c2ccc(Cl)c(Cl)c2)CC1 [Example 19, 4-((3,4-Dichlorophenyl)fluoromethylene)-1-((3,5-dimethyl-1H-pyrazol-4-yl)sulfonyl)piperidine] was tested. Which IC50 did it give?
The IC50 was 0.52 µM.

For Cc1n[nH]c(C)c1S(=O)(=O)N1CCC(=C(F)c2ccc(Cl)c(F)c2)CC1 [Example 20, 4-((4-Chloro-3-fluorophenyl)fluoromethylene)-1-((3,5-dimethyl-1H-pyrazol-4-yl)sulfonyl)piperidine], which IC50 is on record?
The IC50 was 0.19 µM.

How did the IC50 turn out when Cc1n[nH]c(C)c1S(=O)(=O)N1CCC(=C(F)c2ccc(Cl)cc2F)CC1 [Example 21, 4-((4-Chloro-2-fluorophenyl)fluoromethylene)-1-((3,5-dimethyl-1H-pyrazol-4-yl)sulfonyl)piperidine] was run?
Its IC50 is 0.4 µM.

With Cc1n[nH]c(C)c1S(=O)(=O)N1CCC(=C(F)c2cnc3ccccc3c2)CC1 [Example 23] as the compound, how does the IC50 read?
The IC50 was 0.06 µM.
